The record followed here is PubChem BioAssay AID328 (DTP/NCI, 2004).

Toxic doses and inconclusive results are not listed.

This experiment relates to BDF1 mice, P388 leukemia ip, median survival T/C. The experiment is described as follows: NCI In Vivo Anticancer Drug Screen. Data for tumor model P388 Leukemia (intraperitoneal) in B6D2F1 (BDF1) mice. To be noted: endpoint: median survival time, higher = longer survival. A digest of the protocol: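 Vehicle-dosed animals serve as the reference; survival of compound-dosed, tumour-implanted mice is divided by it.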

[1] abbreviates: dose: 25.0 mg/kg/injection, schedule: Q01DX009 (ip), vehicle: Klucel (hydroxypropylcellulose) (HPC).
[2] abbreviates: dose: 50.0 mg/kg/injection, schedule: Q01DX009 (ip), vehicle: Klucel (hydroxypropylcellulose) (HPC).
Where [3] appears, read: dose: 100.0 mg/kg/injection, schedule: Q01DX009 (ip), vehicle: Klucel (hydroxypropylcellulose) (HPC).
[4] abbreviates: dose: 12.5 mg/kg/injection, schedule: Q01DX009 (ip), vehicle: saline.
[5] abbreviates: dose: 25.0 mg/kg/injection, schedule: Q01DX009 (ip), vehicle: saline.
The mark [6] stands for this setting: dose: 50.0 mg/kg/injection, schedule: Q01DX009 (ip), vehicle: saline.
Where [7] appears, read: dose: 100.0 mg/kg/injection, schedule: Q01DX009 (ip), vehicle: saline.
Setting [8] is: dose: 100.0 mg/kg/injection, schedule: Q04DX003 (ip), vehicle: saline.
Where [9] appears, read: dose: 200.0 mg/kg/injection, schedule: Q04DX003 (ip), vehicle: saline.
The mark [10] stands for this setting: dose: 100.0 mg/kg/injection, schedule: Q04DX003 (ip), vehicle: Klucel (hydroxypropylcellulose) (HPC).
[11] abbreviates: dose: 200.0 mg/kg/injection, schedule: Q04DX003 (ip), vehicle: Klucel (hydroxypropylcellulose) (HPC).

For the compound `c1coc(-c2ncnc3c2Cc2ccccc2-3)c1`, the T/C under setting [1] was 100 % of control; the T/C under setting [2] was 118 % of control; the T/C under setting [3] is 109 % of control; the T/C (dose: 150.0 mg/kg/injection, schedule: Q01DX009 (ip), vehicle: Klucel (hydroxypropylcellulose) (HPC)) was 91 % of control.

On to `Cc1cc(=O)[nH]c2c1ccc1[nH]c(=O)cc(C)c12`, for which the T/C is 91 % of control (dose: 100.0 mg/kg/injection, schedule: Q01DX001 (ip), vehicle: Klucel (hydroxypropylcellulose) (HPC)) and 87 % of control (dose: 200.0 mg/kg/injection, schedule: Q01DX001 (ip), vehicle: Klucel (hydroxypropylcellulose) (HPC)).

In the case of `COc1ccc(C2CCc3cc(OC)c(OC)cc3C2=O)cc1OC` (stereo not given), the T/C is 87 % of control (dose: 20.0 mg/kg/injection, schedule: Q01DX009 (ip), vehicle: saline with Tween-80); 91 % of control (dose: 80.0 mg/kg/injection, schedule: Q01DX009 (ip), vehicle: saline with Tween-80); 87 % of control (dose: 120.0 mg/kg/injection, schedule: Q01DX009 (ip), vehicle: saline with Tween-80).

Turning to `CCN(CC)CCNc1ccc(CO)c2sc3ccc(O)cc3c(=O)c12`, the T/C (dose: 9.88 mg/kg/injection, schedule: Q04DX002 (ip), vehicle: saline with Tween-80) was 163 % of control; the T/C (dose: 18.75 mg/kg/injection, schedule: Q04DX002 (ip), vehicle: saline with Tween-80) is 207 % of control; the T/C (dose: 37.5 mg/kg/injection, schedule: Q04DX002 (ip), vehicle: saline with Tween-80) was 179 % of control; the T/C (dose: 75.0 mg/kg/injection, schedule: Q04DX002 (ip), vehicle: saline with Tween-80) was 207 % of control.

On to `CCOc1ccc(Nc2ncnc3nc[nH]c23)cc1CN(CCCl)CCCl`, for which the T/C (dose: 0.13 mg/kg/injection, schedule: Q04DX003 (ip), vehicle: saline) was 106 % of control; the T/C (dose: 0.2 mg/kg/injection, schedule: Q04DX003 (ip), vehicle: saline) was 117 % of control; the T/C (dose: 0.25 mg/kg/injection, schedule: Q01DX009 (ip), vehicle: saline) was 118 % of control; the T/C (dose: 0.29 mg/kg/injection, schedule: Q04DX003 (ip), vehicle: saline) is 196 % of control; the T/C (dose: 0.3 mg/kg/injection, schedule: Q04DX003 (ip), vehicle: saline) is 121 % of control; the T/C (dose: 0.88 mg/kg/injection, schedule: Q04DX003 (ip), vehicle: saline) is 165 % of control. Also, the T/C (dose: 1.0 mg/kg/injection, schedule: Q01DX009 (ip), vehicle: saline) is 154 % of control; the T/C (dose: 1.0 mg/kg/injection, schedule: Q04DX003 (ip), vehicle: saline) was 205 % of control; the T/C (dose: 2.0 mg/kg/injection, schedule: Q01DX009 (ip), vehicle: saline) is 172 % of control; the T/C (dose: 2.2 mg/kg/injection, schedule: Q01DX009 (ip), vehicle: saline) is 163 % of control; the T/C (dose: 3.0 mg/kg/injection, schedule: Q04DX003 (ip), vehicle: saline) was 155 % of control; the T/C (dose: 3.3 mg/kg/injection, schedule: Q01DX009 (ip), vehicle: saline) was 154 % of control.

For the compound `c1ccc2c(c1)CC1CCCCN1C2` (stereo not given), the T/C runs as follows: (dose: 12.5 mg/kg/injection, schedule: Q01DX009 (ip), vehicle: Klucel (hydroxypropylcellulose) (HPC)) 100 % of control; under setting [4], 100 % of control; under setting [1], 105 % of control; under setting [5], 90 % of control; (dose: 37.5 mg/kg/injection, schedule: Q04DX003 (ip), vehicle: saline) 95 % of control; under setting [2], 100 % of control. Besides, the T/C was 110 % of control under setting [6] and 86 % of control (dose: 75.0 mg/kg/injection, schedule: Q04DX003 (ip), vehicle: saline).

Regarding `CN1C(=O)C(C)(C)C(=O)C1(C)C`, the T/C is, setting by setting: (dose: 12.5 mg/kg/injection, schedule: Q01DX001 (ip), vehicle: saline) 100 % of control; (dose: 25.0 mg/kg/injection, schedule: Q01DX001 (ip), vehicle: saline) 100 % of control; (dose: 50.0 mg/kg/injection, schedule: Q01DX001 (ip), vehicle: saline) 100 % of control.

For `Nc1nc(SN=Nc2ccc(S(N)(=O)=O)cc2)c2[nH]cnc2n1`, the T/C runs as follows: (dose: 3.75 mg/kg/injection, schedule: Q01DX009 (ip), vehicle: saline with Tween-80) 120 % of control; (dose: 7.5 mg/kg/injection, schedule: Q01DX009 (ip), vehicle: saline with Tween-80) 104 % of control; (dose: 15.0 mg/kg/injection, schedule: Q01DX009 (ip), vehicle: saline with Tween-80) 91 % of control.

As to `C/C(=N/N(C)C)c1ccc(Br)cc1`, the T/C under setting [4] is 100 % of control; the T/C under setting [5] was 100 % of control; the T/C under setting [6] was 112 % of control; the T/C (dose: 110.0 mg/kg/injection, schedule: Q04DX003 (ip), vehicle: saline) was 109 % of control; the T/C (dose: 170.0 mg/kg/injection, schedule: Q04DX003 (ip), vehicle: saline) is 95 % of control; the T/C (dose: 255.0 mg/kg/injection, schedule: Q04DX003 (ip), vehicle: saline) is 95 % of control.

As for `S=c1[nH]cc2cnccn12`, the T/C by setting is: (dose: 25.0 mg/kg/injection, schedule: Q01DX009 (ip), vehicle: saline with Tween-80) 110 % of control; (dose: 50.0 mg/kg/injection, schedule: Q01DX009 (ip), vehicle: saline with Tween-80) 115 % of control; (dose: 100.0 mg/kg/injection, schedule: Q04DX003 (ip), vehicle: saline with Tween-80) 100 % of control; (dose: 200.0 mg/kg/injection, schedule: Q01DX009 (ip), vehicle: saline with Tween-80) 105 % of control; (dose: 200.0 mg/kg/injection, schedule: Q04DX003 (ip), vehicle: saline with Tween-80) 110 % of control.

In the case of `CC(=O)n1ncc2ccc(N)cc21`, the T/C is 94 % of control (dose: 25.0 mg/kg/injection, schedule: Q01DX009 (ip), vehicle: water); 96 % of control (dose: 50.0 mg/kg/injection, schedule: Q01DX009 (ip), vehicle: water); 103 % of control (dose: 50.0 mg/kg/injection, schedule: Q04DX003 (ip), vehicle: water); 102 % of control (dose: 100.0 mg/kg/injection, schedule: Q01DX009 (ip), vehicle: water); 103 % of control (dose: 100.0 mg/kg/injection, schedule: Q04DX003 (ip), vehicle: water); 99 % of control (dose: 200.0 mg/kg/injection, schedule: Q01DX009 (ip), vehicle: water). For the same compound, the T/C by setting is: (dose: 200.0 mg/kg/injection, schedule: Q04DX003 (ip), vehicle: water) 101 % of control; (dose: 400.0 mg/kg/injection, schedule: Q04DX003 (ip), vehicle: water) 120 % of control.

As to `Nc1ccc(CCCCc2ccc(Cl)cc2Cl)cc1`, the T/C runs as follows: under setting [5], 95 % of control; under setting [6], 95 % of control; under setting [7], 95 % of control; under setting [8], 104 % of control; (dose: 150.0 mg/kg/injection, schedule: Q01DX009 (ip), vehicle: saline) 109 % of control; under setting [9], 100 % of control.

Regarding `Nc1nc(SCc2ccccc2Cl)c2ncn(C3OC(CO)C(O)C3O)c2n1` (stereo not given), the T/C was 105 % of control under setting [7]; 100 % of control under setting [10]; 90 % of control (dose: 200.0 mg/kg/injection, schedule: Q01DX009 (ip), vehicle: saline); 118 % of control under setting [11]; 118 % of control (dose: 400.0 mg/kg/injection, schedule: Q04DX003 (ip), vehicle: Klucel (hydroxypropylcellulose) (HPC)).

In the case of `O=S(=O)(NS(=O)(=O)c1ccc(Cl)cc1)c1ccc(Cl)cc1`, the T/C is 95 % of control under setting [2]; 115 % of control under setting [3]; 95 % of control under setting [10]; 115 % of control (dose: 200.0 mg/kg/injection, schedule: Q01DX009 (ip), vehicle: Klucel (hydroxypropylcellulose) (HPC)); 86 % of control under setting [11].

As to `O=C(Nc1cccc2ccccc12)N1c2ccccc2SC12CCCC2`, under “dose: 100.0 mg/kg/injection, schedule: Q01DX009 (ip), vehicle: saline with Tween-80”, the T/C was 91 % of control.

For `Cn1cnc([N+](=O)[O-])c1[Se]c1ncnc2c1ccn2C1OC(CO)C(O)C1O` (stereo not given), the T/C (dose: 6.25 mg/kg/injection, schedule: Q01DX009 (ip), vehicle: saline) is 107 % of control; the T/C under setting [4] was 88 % of control; the T/C under setting [5] is 102 % of control; the T/C under setting [8] was 100 % of control; the T/C under setting [9] is 104 % of control.
